Measurements from PubChem BioAssay (NCI).
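How tested: cells in 96-well plates exposed to compound for 48 hours at five concentrations. GI50 = concentration required for 50% inhibition of growth. TGI denotes the concentration required for complete inhibition of growth.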

Tests used:
Assay in all cases: growth of human tumour cells (NCI), 48 h
[1] = tested on: SK-MEL-5 melanoma
[2] = tested on: SR leukemia
[3] = tested on: SF-268 CNS
[4] = tested on: MCF7 breast
[5] = tested on: HCC-2998 colon
[6] = tested on: RPMI-8226 leukemia
[7] = tested on: EKVX NSCLC
[8] = tested on: SK-OV-3 ovarian
[9] = tested on: ACHN renal
[10] = tested on: OVCAR-3 ovarian

SMILES	TGI [1]	TGI [2]	TGI [3]	TGI [4]	TGI [5]	TGI [6]	TGI [7]	TGI [8]	TGI [9]	TGI [10]	GI50 [10]
O=C(/C(=C\C(=O)c1cccs1)c1ccsc1)c1ccc(Br)cc1	> 100 µM	> 100 µM	> 100 µM	> 100 µM	> 100 µM	> 100 µM	> 100 µM	> 100 µM	> 100 µM		
CCNc1ccc2c(c1)Cc1ccccc1-2	> 100 µM	> 100 µM	> 100 µM	> 100 µM	> 100 µM	> 100 µM	> 100 µM		> 100 µM	> 100 µM	
O=[N+]([O-])c1ccc2nc(-c3ccccn3)c(-c3ccccn3)nc2c1	> 100 µM	> 100 µM	> 100 µM	> 100 µM	> 100 µM	> 100 µM	> 100 µM	> 100 µM	> 100 µM	> 100 µM	
CC[N+](C)(CC)CCC(O)(c1ccccc1)c1ccccc1	> 100 µM	> 100 µM	> 100 µM	> 100 µM	> 100 µM	> 100 µM	> 100 µM	> 100 µM	> 100 µM	> 100 µM	
COc1ccc(/C=c2\[nH]c3nc(=O)c(N4CCOCC4)c(N)n3c2=O)cc1	> 100 µM	> 100 µM	> 100 µM	> 100 µM	> 100 µM	> 100 µM	> 100 µM	> 100 µM	> 100 µM		
Cc1cc(C)c(P2C(=C(O[Si](C(C)C)(C(C)C)C(C)C)C(C)(C)C)C2(c2ccccc2)c2ccccc2)c(C)c1 (stereo unspecified)	> 100 µM	> 100 µM	> 100 µM	> 100 µM	> 100 µM	> 100 µM	> 100 µM	> 100 µM	> 100 µM	> 100 µM	
CN1CCN(c2c(Cl)cc(Cl)c3[nH]c4ccccc4c(=O)c23)CC1	31.9 µM	> 100 µM	20.2 µM	15.8 µM	19.4 µM	56.8 µM	32.6 µM	24.3 µM	17 µM	33.5 µM	
N/N=C1/C2CN3CCN(C2)CC1(c1ccc([N+](=O)[O-])cc1)C3	> 100 µM	> 100 µM	> 100 µM	> 100 µM		> 100 µM	> 100 µM		> 100 µM	> 100 µM	
COc1ccc(N(C)C(=O)N(C)c2ccc([N+](=O)[O-])cc2)cc1	> 100 µM	> 100 µM	> 100 µM	> 100 µM	> 100 µM	> 100 µM	> 100 µM	91.5 µM	> 100 µM	84.2 µM	
COc1cc2nc(-c3ccc4ccccc4c3)[nH]c(=O)c2cc1OC	> 100 µM	> 100 µM	> 100 µM	> 100 µM	> 100 µM	> 100 µM	> 100 µM	> 100 µM	> 100 µM	> 100 µM	
COC1OC(Cc2nnc(C)o2)C(OCc2ccccc2)C(OCc2ccccc2)C1OCc1ccccc1 (stereo unspecified)	30 µM	29.6 µM	46.3 µM	49.7 µM		> 100 µM	35.5 µM	> 100 µM	76.8 µM	60.6 µM	
Cc1ccc(C(=O)O)c(CC2Cc3c(C)cccc3C2=O)c1 (stereo unspecified)	> 100 µM	> 100 µM	> 100 µM	> 100 µM	> 100 µM	> 100 µM	> 100 µM	> 100 µM	> 100 µM	> 100 µM	
C[C@@H](O)C(=O)N1[C@@H]2CC3CC[C@]2(CS1(=O)=O)C3(C)C	> 100 µM	58.5 µM		> 100 µM	> 100 µM	> 100 µM	> 100 µM	> 100 µM	> 100 µM	> 100 µM	
CCOC(=O)C(NC(=O)N(C1=NCC(C)S1)C1CCCCC1)(OC)C(F)(F)F (stereo unspecified)	66.8 µM	> 100 µM	> 100 µM	62.2 µM	> 100 µM		> 100 µM	> 100 µM	89.9 µM	71.1 µM	
COc1cccc(CC(C)NCC(O)c2ccc(O)c(O)c2)c1 (stereo unspecified)	> 100 µM	67.4 µM	> 100 µM	> 100 µM		> 100 µM	> 100 µM	> 100 µM	> 100 µM	> 100 µM	
C(=C\c1cccc(/C=C/c2ccccn2)n1)/c1ccccn1	> 100 µM	> 100 µM	37.2 µM	> 100 µM	> 100 µM	> 100 µM	> 100 µM	> 100 µM	> 100 µM	> 100 µM	
O=C1CCC2(CCO1)OCCO2	> 100 µM	> 100 µM	> 100 µM	> 100 µM	> 100 µM		> 100 µM	> 100 µM	> 100 µM	> 100 µM	
c1ccc(CCNCc2ccco2)nc1	> 100 µM	> 100 µM	> 100 µM	> 100 µM	> 100 µM	> 67.9 µM	> 100 µM	> 100 µM	> 100 µM	> 100 µM	
CC1OC2=N[C@@H]1C(=O)N[C@@H](C(C)C)C1=N[C@H](C(=O)N[C@@H](C(C)C)C3=N[C@H](C(=O)N[C@@H](C(C)C)C4=N[C@H](C(=O)N[C@H]2C(C)C)C(C)O4)C(C)O3)C(C)O1 (stereo partly specified)	> 10 µM	> 10 µM	> 10 µM	> 10 µM	> 10 µM	> 10 µM	> 10 µM	> 10 µM	> 10 µM	> 10 µM	
Cc1ccncc1.F[B-](F)(F)F.[Pt+2].c1ccc(-c2cccc(-c3ccccn3)n2)nc1	21.7 µM	> 100 µM	> 60 µM	25.7 µM	59.5 µM	32.9 µM	> 73.5 µM	17.6 µM	25.1 µM	> 44.3 µM	0.835 µM
N=C1N(S(=O)(=O)c2ccccc2)[C@@H](Cc2ccccc2)[C@H](c2ccccc2)C1(c1ccccc1)c1ccccc1	> 100 µM	> 100 µM	> 100 µM	> 100 µM	> 100 µM	> 100 µM	> 100 µM	> 100 µM	> 100 µM	> 100 µM	
